According to article PMC6271887, “Antiparasitic Activity of Natural and Semi-Synthetic Tirucallane Triterpenoids from Schinus terebinthifolius (Anacardiaceae): Structure/Activity Relationships” (Molecules, 2014):
In brackets after ≈: the same amount, converted by molar mass. Read-outs that look alike come from different tables or passages of the source.

Experiments:
[1] = system: L. infantum intracellular amastigotes; experiment: Activity against L. infantum intracellular amastigotes in peritoneal macrophages (Giemsa, microscopy); type: cell-based, Leishmania (L.) infantum; details: for L. infantum (Amastigotes) Experimental: class, without activity at 100 µg/mL = inactive; for SI AMA: selectivity index amastigotes: CC50 mammalian cells/IC50 Leishmania amastigotes; for IC50: Leishmania infantum, Peritoneal macrophage, intracellular, peritoneal macrophages, 120 h, 100 to 0.78 μg/mL, NA: not active, read-out: IC50 CI95% L. infantum Amastigotes
Protocol: (§1) Isolated promastigotes of L. (L.) infantum (MHOM/BR/1972/LD) were maintained in M-199 medium supplemented with 10% fetal bovine serum (FBS) and 0.25% hemin at 24 °C. L. infantum was maintained in golden hamsters up to 60–70 days post-infection. Amastigotes were harvested from spleens of infected hamsters by differential centrifugation. T. cruzi trypomastigotes (Y strain) were maintained in LLC-MK2 (ATCC CCL 7) cells using RPMI-1640 medium supplemented with 2% FBS at 37 °C 5% CO2-humidified incubator [21].
Peritoneal macrophages were collected from the peritoneal cavity of female BALB/c mice by washing with RPMI-1640 without phenol red, supplemented with 10% FBS. NCTC (clone 929) cells were maintained in RPMI-1640 (without phenol red and supplemented with 10% FBS) at 37 °C in a humidified atmosphere containing 5% CO2 [31].
Peritoneal macrophages were obtained as described previously and L. infantum amastigotes were obtained from spleens of infected hamsters by differential centrifugation. Peritoneal macrophages were seeded at 1 × 10^5 cells per well in Nunc™ 16-well slide chambers (Aldrich, St. Louis, MO, USA) for 24 h at 37 °C in a 5% CO2-humidified incubator. Amastigotes were added to macrophages at 10:1 ratio (amastigotes:macrophage) and incubated for 24 h. Non-internalized parasites were removed by washing twice with medium and the cells were then incubated with compounds in a range concentration of 100 to 0.78 μg/mL for 120 h at 37 °C in 5% CO2, using miltefosine as standard drug. At the end of the assay, the cells were fixed in methanol, stained with Giemsa and observed under a light microscope to determine the number of infected macrophages out of 400 cells.

[2] = system: T. cruzi trypomastigotes (Y strain); experiment: Activity against Trypanosoma cruzi trypomastigotes (MTT); type: cell-based; details: for SI TRY: selectivity index trypomastigotes: CC50 mammalian cells/IC50 trypomastigotes; for IC50: Trypanosoma cruzi, 37 °C, 100 to 0.78 μg/mL, NA: not active, read-out: IC50 CI95% T. cruzi Trypomastigotes; for T. cruzi (Trypomastigotes) Experimental: class, without activity at 100 µg/mL = inactive
Protocol: as §1
Compounds 1–3, 1a–c, 2a–d, 3a, and 3b were dissolved in DMSO and diluted in RPMI-1640 medium to determine the 50% inhibitory concentration (IC50) as described above for the antileishmanial assay. Free trypomastigotes obtained from LLC-MK2 cultures were counted in a Neubauer hemocytometer and seeded at 1 × 10^6/well in 96-well microplates. The tested compounds were incubated in a range concentration of 100 to 0.78 μg/mL for 24 h at 37 °C in a 5% CO2 humidified incubator, using benznidazole as standard drug. The viability of the trypomastigotes was verified by the MTT assay as described above.

[3] = Cytotoxicity against mammalian cells (MTT); type: cell-based; details: mouse
Protocol: (§2) Peritoneal macrophages were collected from the peritoneal cavity of female BALB/c mice by washing with RPMI-1640 without phenol red, supplemented with 10% FBS. NCTC (clone 929) cells were maintained in RPMI-1640 (without phenol red and supplemented with 10% FBS) at 37 °C in a humidified atmosphere containing 5% CO2 [31]. The 50% cytotoxic concentration (CC50) was determined in NCTC clone 929 cells. NCTC cells were seeded at 6 × 10^4 cells/well in 96-well microplates at 37 °C in a 5% CO2. The mammalian cells were incubated with tested compounds to the highest concentration of 200 μg/mL for 48 h at 37 °C, using miltefosine as standard drug. The viability of the cells was determined by MTT assay at 570 nm. The selectivity index (SI) was determined considering the following equation: CC50 NCTC cells/IC50 parasites.

[4] = system: NCTC clone 929 cells; experiment: Cytotoxicity against mammalian cells (MTT); type: cell-based
Protocol: as §2

[5] = system: T. cruzi trypomastigotes (Y strain); design: method as in PMID 24340110; details: CI95% not given; cited from earlier work
[6] = system: extracellular forms of the parasite; design: method as in PMID 10603400; details: cited from earlier work
[7] = system: L. infantum promastigotes; design: method as in PMID 24374794; details: CI95% not given; cited from earlier work
[8] = system: L. infantum intracellular amastigotes; design: method as in PMID 24374794; details: CI95% not given; cited from earlier work
[9] = system: L. infantum promastigotes; experiment: Activity against L. infantum promastigotes (MTT, light microscopy); type: cell-based; details: Leishmania infantum; 48 h, 24 °C, 100 to 0.78 μg/mL; NA: not active; read-out: IC50 CI95% L. infantum Promastigotes
Protocol: as §1
To determine the 50% inhibitory concentration (IC50) against L. infantum promastigotes, compounds 1–3, 1a–c, 2a–d, 3a, and 3b were previously dissolved in dimethyl sulphoxide (DMSO) and diluted with M-199 medium in 96-well microplates. Promastigotes were counted in a Neubauer hemocytometer and seeded at 1 × 10^6/well with a final volume of 150 μL. The tested compounds were incubated in a range concentration of 100 to 0.78 μg/mL for 48 h at 24 °C. The viability of promastigotes was verified by motility and morphology using light microscopy and by the colorimetric MTT assay. Briefly, 3-[4,5-dimethylthiazol-2-yl]-2,5-diphenyltetrazolium bromide (MTT, 5 mg/mL) was dissolved in phosphate-buffered saline (PBS), sterilized through 0.22 µm membranes and added, 20 µL/well, for 4 h at 24 °C. […]

[10] = NCTC clone 929 cells, NCTC clone 929, 48 h, highest concentration 200 μg/mL, read-out: CC50 CI95% NCTC

Row | SMILES | L. infantum (Amastigotes) Experimental [1] | SI TRY: selectivity index trypomastigotes [2] | IC50 ([2]; 24 h) | CC50 at 48 h ([3]; CC50 CI95% NCTC) | NCTC Experimental [4] | SI AMA: selectivity index amastigotes [1] | also measured
1 | CC(=O)OC1CC[C@]2(C)C3CC[C@@]4(C)[C@H](C(C)CC/C=C(\C)C(=O)O)CC[C@]4(C)C3=CCC2C1(C)C (stereo partly shown) [Compound 2b, 3ξ-Acetoxytirucalla-7,24E-dien-27-oic acid] | I | 1.1 | 58.4 µg/mL (≈ 117 µM) | 69.3 µg/mL (≈ 139 µM) | I | – | –
2 | COC(=O)/C(C)=C/CCC(C)[C@@H]1CC[C@]2(C)C3=CCC4C(C)(C)C(=O)CC[C@]4(C)C3CC[C@@]12C (stereo partly shown) [Compound 2d, Methyl 3-oxotirucalla-7,24E-dien-27-oate] | I | – | – | – | – | – | T. cruzi (Trypomastigotes) Experimental [2]: I; CC50 at 48 h [3, 10]: > 200 µg/mL; NCTC Experimental ([4]; cytotoxicity class): I
3 | O=C(Cn1ccnc1[N+](=O)[O-])NCc1ccccc1 [benznidazole] | – | – | – | – | – | – | IC50 T. cruzi Trypomastigotes (standard drug) [5]: 115 µg/mL (≈ 441 µM)
4 | C/C(=C/CCC(C)[C@@H]1CC[C@]2(C)C3=CCC4C(C)(C)C(=O)CC[C@]4(C)C3CC[C@@]12C)C(=O)O (stereo partly shown) [Compound 1, 3-Oxotirucalla-7,24Z-dien-27-oic acid] | – | – | – | – | – | >3 | IC50 [1]: 66.5 µg/mL (≈ 146 µM); IC50 against T. cruzi trypomastigotes ([2]; 24 h): lack of activity; T. cruzi (Trypomastigotes) Experimental [2]: I; CC50 at 48 h [3, 10]: > 200 µg/mL; NCTC Experimental ([4]; cytotoxicity class): I
5 | CNC[C@H](O)[C@@H](O)[C@H](O)[C@H](O)CO.[O]=[Sb](=[O])[OH] [glucantime] | – | – | – | – | – | – | effectiveness against the extracellular forms of the parasite [6]: no effectiveness
6 | C/C(=C\CCC(C)[C@@H]1CC[C@]2(C)C3=CCC4C(C)(C)C(O)CC[C@]4(C)C3CC[C@@]12C)C(=O)O (stereo partly shown) [Compound 2a, 3ξ-Hydroxytirucalla-7,24E-dien-27-oic acid] | – | 3.2 | 29.6 µg/mL (≈ 64.8 µM) | 95.5 µg/mL (≈ 209 µM) | I | 1.0 | IC50 [1]: 97.6 µg/mL (≈ 214 µM)
7 | CC(CCCC(C)[C@@H]1CC[C@]2(C)C3=CCC4C(C)(C)C(O)CC[C@]4(C)C3CC[C@@]12C)C(=O)O (stereo partly shown) [Compound 1b, 3ξ-Hydroxytirucall-7-en-27-oic acid] | I | 4.3 | 17.6 µg/mL (≈ 38.5 µM) | 76.4 µg/mL (≈ 167 µM) | – | – | –
8 | CCCCCCCCCCCCCCCCOP(=O)([O-])OCC[N+](C)(C)C [miltefosine, reference compound] | – | – | – | – | – | 7 | CC50 at 48 h [3, 10]: 49.7 µg/mL (≈ 122 µM); IC50 L. infantum Promastigotes (standard drug) [7]: 6.87 µg/mL (≈ 16.9 µM); IC50 L. infantum Amastigotes (standard drug) [8]: 7.25 µg/mL (≈ 17.8 µM)
9 | C/C(=C\CCC(C)[C@@H]1CC[C@]2(C)C3=CCC4C(C)(C)C(=O)CC[C@]4(C)C3CC[C@@]12C)C(=O)O (stereo partly shown) [Compound 2, 3-Oxotirucalla-7,24E-dien-27-oic acid] | – | 6.1 | 15.8 µg/mL (≈ 34.6 µM) | – | – | 1.5 | IC50 [1]: 64.9 µg/mL (≈ 143 µM); CC50 at 48 h [3, 10]: 96 µg/mL (≈ 211 µM); CC50 CI95% NCTC ([4]; NCTC clone 929, 48 h, highest concentration 200 μg/mL): 96.48 (77.38–120.30) μg/mL; NCTC Experimental ([4]; cytotoxicity class): I
10 | C/C(=C/CCC(C)[C@@H]1CC[C@]2(C)C3=CCC4C(C)(C)[C@H](O)CC[C@]4(C)C3CC[C@@]12C)C(=O)O (stereo partly drawn) [Compound 3, 3α-Hydroxytirucalla-7,24Z-dien-27-oic acid] | – | 4.3 | 16.3 µg/mL (≈ 35.6 µM) | 69 µg/mL (≈ 151 µM) | – | 2.4 | IC50 [9]: 57.8 µg/mL (≈ 127 µM); IC50 [1]: 28.9 µg/mL (≈ 63.4 µM); CC50 CI95% NCTC ([4]; mouse, 48 h): 69.50 (64.01–75.45) μg/mL
11 | COC(=O)/C(C)=C\CCC(C)[C@@H]1CC[C@]2(C)C3=CCC4C(C)(C)[C@H](O)CC[C@]4(C)C3CC[C@@]12C (stereo partly drawn) [Compound 3a, Methyl 3α-hydroxytirucalla-7,24Z-dien-27-oate] | I | – | – | > 200 µg/mL | I | – | –
12 | COC(=O)/C(C)=C\CCC(C)[C@@H]1CC[C@]2(C)C3=CCC4C(C)(C)[C@H](OC(C)=O)CC[C@]4(C)C3CC[C@@]12C (stereo partly drawn) [Compound 3b, Methyl 3α-acetoxytirucalla-7,24Z-dien-27-oate] | I | – | – | > 200 µg/mL | I | – | –
13 | C/C(=C/CCC(C)[C@@H]1CC[C@]2(C)C3=CCC4C(C)(C)C(O)CC[C@]4(C)C3CC[C@@]12C)C(=O)O (stereo partly shown) [Compound 1a, 3ξ-Hydroxytirucalla-7,24Z-dien-27-oic acid] | I | 3.4 | 20.2 µg/mL (≈ 44.2 µM) | 69.5 µg/mL (≈ 152 µM) | – | – | –
14 | CC(=O)OC1CC[C@]2(C)C3CC[C@@]4(C)[C@H](C(C)CCCC(C)C(=O)O)CC[C@]4(C)C3=CCC2C1(C)C (stereo partly shown) [Compound 2c, 3ξ-Acetoxytirucall-7-en-27-oic acid] | I | 1.2 | 49.2 µg/mL (≈ 98.2 µM) | 57.8 µg/mL (≈ 115 µM) | I | – | –
15 | CC(CCCC(C)[C@@H]1CC[C@]2(C)C3=CCC4C(C)(C)C(=O)CC[C@]4(C)C3CC[C@@]12C)C(=O)O (stereo partly shown) [Compound 1c, 3-Oxotirucall-7-en-27-oic acid] | I | – | – | > 200 µg/mL | I | – | T. cruzi (Trypomastigotes) Experimental [2]: I
